This note sets out measurements from patent publication US9599627B2, “NMR methods for monitoring blood clot formation” (T2 Biosystems, Inc., priority 2011, dated 2017).

Assay [1] relates to P2Y12 pathway in platelets. Kind of assay: T2MR platelet inhibition, ADP activation formulation in citrated whole blood. The settings on record: ex vivo spiked MeSAMP, healthy donors. Format: cell-based, human. The source says:
We have developed a standard formulation for ADP activation of platelets in citrated whole blood which uses the addition of heparin to control thrombin activation, thereby minimizing variability in platelet activation via thrombin. Clotting in such a system is initiated with a combination of calcium (to overcome citrate), and reptilase/factor XIIIa (to replace thrombin). The complete one-pot activation mixture which activates platelets via ADP, and is therefore useful in probing the state of the P2Y12 ADP receptor, contains heparin, reptilase, factor XIIIa, calcium, and ADP.
In this experiment inhibition of the P2Y12 pathway in platelets by using the ex vivo spiked MeSAMP (2-thiomethyl AMP, an irreversible ADP P2Y12 receptor inhibitor) as a mimic for Plavix inhibition of platelet activity was tested.
A standard ADP activation formulation including heparin, reptilase, factor XIIIa, calcium, and ADP was used to activate platelet in citrated whole blood obtained from healthy donors. Samples were tested in the presence and absence of the platelet activation inhibitor MeSAMP. Again we observed that the clot signature was dependent on platelet activity.

The next assay has as its system anti-Xa. Kind of assay: PT clotting time of spiked samples (T2MR and Stago). Format: cell-based, human. The settings on record: spiked at 10 ng/mL-1000 ng/mL. As to the method: Clotting times were measured by […] by first establishing a time zero T2 value (i.e., by taking the first point or some sort of average or linear fit to the first 5-10 data points) of the T2 time curve, and second identifying the time point (i.e., the clotting time or PT time) in the T2 time curve when the T2 value had changed by a predetermined amount (e.g. 5% or 10%) indicative of clotting in the sample. From the observed PT clotting time the INR was calculated using the methods described in Jan et al., Clin. Chem. 35:840 (1989). […] 18 normal samples and 24 abnormal samples were tested against a reference range established by 20 normal samples. Abnormal samples with prolonged PT times were obtained by spiking increasing levels of the anti-Xa inhibitor Rivaroxiban (10 ng/mL-1000 ng/mL). Correlation with TEG clotting time was obtained across >40 normal patient samples with non-optimized R2 correlation of >0.8. (see FIG. 14B). PT time correlations with Stago for plasma (see FIG. 14D) and with Hemochron for whole blood (see FIG. 14C) were also found.

The test system of another assay is platelet activity. Kind of assay: T2MR platelet inhibition, heparin blood activated by AA+RF. In kind it is cell-based. The settings on record: 600 μM aspirin ex vivo, AA+RF activation. As to the method:
In this experiment platelet inhibition was monitored by the addition of 600 μM aspirin ex vivo to heparin blood prior to activation by AA+RF (samples were tested with and without aspirin). […] These studies confirmed that the clot signature was dependent on platelet activity.

With `CSc1nc(N)c2ncn([C@@H]3O[C@H](COP(=O)(O)O)[C@@H](O)[C@H]3O)c2n1` [MeSAMP, 2-thiomethyl AMP], the “clot-associated T2 signal” value in assay [1] was “dramatically diminished or absent”.
Regarding `O=C(NC[C@H]1CN(c2ccc(N3CCOCC3=O)cc2)C(=O)O1)c1ccc(Cl)s1` [Rivaroxiban], the PT times result with anti-Xa is listed as “prolonged”.
Consider `CC(=O)Oc1ccccc1C(=O)O` [aspirin], for which, in the assay with platelet activity, the “clot-associated T2 signal” value is “dramatically diminished or absent”.
